Results taken from the supplement of paper PMC4858399.
Structures can show the parent of a compound that is named as a salt.

Experiments:
[1] = tested on: Caenorhabditis elegans N2; assay: mean nematode size ln(EXT) after 48 h, plate-adjusted (DMSO control set to 6) (ln(EXT), control-adjusted); higher = larger nematodes / less growth inhibition; details: exposure time 48 h
Summary of the method: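 Worms were measured individually for extinction on the Biosort after 48 h at 20°C. They began as synchronised C. elegans N2 L1 larvae in K-medium with killed OP50, 1% DMSO and 0.5–200 µM chemical. Once debris had been removed by a growth model, values were natural-logged and averaged per well to give mean size. The plate adjustment subtracted the vehicle control mean and added 6.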

[2] = tested on: Caenorhabditis elegans N2; assay: lowest effective concentration for larval growth inhibition (size below effect threshold); higher = less potent; details: exposure time 48 h
Summary of the method: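 Each well of a 96-well plate received 50 C. elegans N2 L1 larvae, which grew for 48 h at 20°C in K-medium containing killed bacteria, 1% DMSO and the chemical at 0.5, 1, 5, 10, 50, 100 or 200 µM. A Biosort recorded the extinction of every worm as its size, and these readings were log-transformed and averaged per well. The lowest effective concentration is defined as the first dose at which the plate-adjusted mean size falls below the threshold and stays below it at all higher doses; that threshold is 5.665.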

| SMILES | mean nematode size ln(EXT) (ln) ([1]; 0.5 µM) | mean nematode size ln(EXT) (ln) ([1]; 1 µM) | mean nematode size ln(EXT) (ln) ([1]; 5 µM) | mean nematode size ln(EXT) (ln) ([1]; 10 µM) | mean nematode size ln(EXT) (ln) ([1]; 50 µM) | mean nematode size ln(EXT) (ln) ([1]; 100 µM) | mean nematode size ln(EXT) (ln) ([1]; 200 µM) | lowest effective concentration [2] |
| --- | --- | --- | --- | --- | --- | --- | --- | --- |
| CC(C)C1(C)N=C(c2nc3ccccc3cc2C(=O)O)NC1=O (centres undefined) [Imazaquin] | 6.13 | 6.14 | 6.13 | 6.33 | 6.08 | 6.06 | 6.1 | > 200 µM |
| CCc1cnc(C2=NC(C)(C(C)C)C(=O)N2)c(C(=O)O)c1 (centres undefined) [Imazethapyr] | 5.99 | 5.93 | 6.06 | 6.15 | 6.12 | 6.24 | 6.05 | > 200 µM |
| [As]#[In] [Indium arsenide] | 5.78 | 5.76 | 5.77 | 5.75 | 5.54 | 5.53 | 5.86 | > 200 µM |
| COc1ccc2c(c1)c(CC(=O)O)c(C)n2C(=O)c1ccc(Cl)cc1 [Indomethacin] | 6.03 | 5.93 | 5.95 | 5.96 | 5.93 | 5.93 | 5.83 | > 200 µM |
| COC(=O)c1ccc(I)cc1S(=O)(=O)NC(=O)Nc1nc(C)nc(OC)n1 [Iodosulfuron-methyl-sodium] | 6.1 | 6.11 | 5.88 | 6.04 | 6.15 | 6.07 | 5.89 | > 200 µM |
| CC(=O)OCCC(C)C [Isoamyl acetate] | 5.95 | 5.84 | 5.89 | 5.79 | 5.86 | 5.83 | 5.75 | > 200 µM |
| CCCC(=O)OCCC(C)C [Isoamyl butyrate] | 5.92 | 5.91 | 5.91 | 6.05 | 5.81 | 5.9 | 6.13 | > 200 µM |
| C/C=C\c1ccc(O)c(OC)c1 [Isoeugenol] | 5.87 | 5.92 | 5.95 | 6.01 | 5.87 | 5.85 | 5.88 | > 200 µM |
| NNC(=O)c1ccncc1 [Isoniazid] | 5.78 | 5.82 | 5.77 | 5.64 | 5.82 | 5.88 | 5.65 | 200 µM |
| CC1=CC(=O)CC(C)(C)C1 [Isophorone] | 5.84 | 5.72 | 5.76 | 5.71 | 5.75 | 5.94 | 5.79 | > 200 µM |
| CC(C)NCC(O)c1ccc(O)c(O)c1 (centres undefined) [Isoprenaline hydrochloride] | 5.94 | 5.97 | 5.91 | 5.94 | 5.95 | 5.54 | 5.84 | > 200 µM |
| CCC(C)(CC)c1cc(NC(=O)c2c(OC)cccc2OC)on1 [Isoxaben] | 5.88 | 5.93 | 6.01 | 6.02 | 5.92 | 6.03 | 5.93 | > 200 µM |
| N[C@@H](Cc1c[nH]c2ccccc12)C(=O)O [L-Tryptophan] | 5.91 | 5.87 | 5.89 | 5.86 | 5.85 | 5.96 | 5.7 | > 200 µM |
| Cc1cc(Cl)ccc1OCC(=O)O [MCPA] | 5.99 | 6.05 | 6.18 | 6.02 | 6.09 | 6.02 | 5.9 | > 200 µM |
| CCOC(=O)CC(SP(=O)(OC)OC)C(=O)OCC (centres undefined) [Malaoxon] | 5.9 | 5.85 | 6.21 | 5.99 | 5.89 | 5.94 | 5.83 | > 200 µM |
| O=c1ccc(=O)[nH][nH]1 [Maleic hydrazide] | 6.04 | 5.94 | 5.94 | 5.96 | 5.96 | 5.9 | 6.03 | > 200 µM |
| Cc1occc(=O)c1O [Maltol] | 6.08 | 5.97 | 6.02 | 6.07 | 6 | 5.93 | 5.76 | > 200 µM |
| C[N+]1(C)CCCCC1 [Mepiquat chloride] | 5.73 | 5.8 | 6 | 5.91 | 5.96 | 6.13 | 5.9 | > 200 µM |
| COCC(=O)N(c1c(C)cccc1C)C(C)C(=O)OC (centres undefined) [Metalaxyl] | 6.15 | 6.19 | 6.16 | 6 | 6.14 | 6.18 | 5.98 | > 200 µM |
| C=C(C)C(N)=O [Methacrylamide] | 6.05 | 5.91 | 5.89 | 5.82 | 6.01 | 5.82 | 5.86 | > 200 µM |
| COP(N)(=O)SC (centres undefined) [Methamidophos] | 5.74 | 5.85 | 5.85 | 5.88 | 5.89 | 5.93 | 5.87 | > 200 µM |
| Cn1ccnc1S [Methimazole] | 5.77 | 5.89 | 5.88 | 5.83 | 5.91 | 5.9 | 5.95 | > 200 µM |
| CN(Cc1cnc2nc(N)nc(N)c2n1)c1ccc(C(=O)N[C@@H](CCC(=O)O)C(=O)O)cc1 [Methotrexate] | 5.83 | 5.86 | 5.81 | 5.85 | 5.84 | 5.82 | 5.75 | > 200 µM |
| COCCO [Methyl cellusolve] | 5.86 | 5.94 | 6.08 | 6.07 | 5.99 | 6.03 | 6.06 | > 200 µM |
| COC(=O)c1ccccc1C(=O)O [Methyl hydrogen phthalate] | 6.07 | 6.01 | 6.1 | 6.07 | 6.14 | 6.14 | 5.95 | > 200 µM |
| COS(C)(=O)=O [Methyl methanesulfonate] | 5.92 | 5.9 | 5.9 | 5.87 | 5.81 | 5.52 | 5.89 | > 200 µM |
| C=CCc1ccc(OC)c(OC)c1 [Methyleugenol] | 6 | 5.97 | 6.02 | 5.98 | 5.99 | 5.99 | 5.7 | > 200 µM |
| COC(=O)c1ccc(O)cc1 [Methylparaben] | 6.02 | 5.99 | 5.95 | 6.11 | 6.02 | 6.06 | 5.7 | > 200 µM |
